Four molecules from ChEMBL document CHEMBL1153010, “Effect of conjugates of all-trans-retinoic acid and shorter polyene chain analogues with amino acids on prostate cancer cell growth” (Eur J Med Chem, 2009) can be followed below.

One may read the pIC50 as the IC50 on a negative log10 scale, so that one unit is a factor of ten. A higher pIC50 goes with a low IC50.

For experiment [1], the system named is LNCaP. Put plainly: Antiproliferative activity against human LNCAP cells after 48 hrs by MTT assay. The experiment is classed as functional, cell-based.
Experiment [2] has as its system LNCaP. Description: Effect on morphology in human LNCAP cells assessed as elongation of cells by phase-contrast microscopy. The format is functional, cell-based.
The subject of experiment [3] is LNCaP. Description: Antiproliferative activity against human LNCAP cells assessed as maximal effect at 10 uM after 48 hrs by MTT assay. The format is functional, cell-based. A general note: Formazan colour is commonly taken as a measure of viable cells.
In experiment [4] the test system is LNCaP. Put plainly: Cell cycle arrest in human LNCAP cells assessed as accumulation at G2/M phase after 48 hrs by flow cytometry. The format is functional. On the technique in general: A flow cytometer gives signals particle by particle.
Experiment [5] has as its system LNCaP. Put plainly: Cell cycle arrest in human LNCAP cells assessed as accumulation at G0/G1 phase after 48 hrs by flow cytometry. The format is functional.
The subject of experiment [6] is LNCaP. Put plainly: Cell cycle arrest in human LNCAP cells assessed as accumulation at S phase after 48 hrs by flow cytometry. The format is functional.
Experiment [7] has as its system LNCaP. Description: Antiproliferative activity against human LNCAP cells after 48 hrs by MTT assay in the presence of 1 uM RARalpha selective antagonist Ro415253. The experiment is classed as functional, cell-based.

Each structure is given as a SMILES string. pIC50: −log10 of the molar value. Active and inactive are the calls of the source. The rule behind the calls is not given here.

`CC1=C(/C=C/C(C)=C/C=C/C(C)=C/C(=O)NCCCCCC(=O)O)C(C)(C)CCC1`: the result with LNCaP [1] was inactive. In the experiment on LNCaP [2], the result was Active.
Turning to `CC1=C(/C=C/C(C)=C/C=C/C(C)=C/C(=O)O)C(C)(C)CCC1` [TRETINOIN], the outcome in the experiment on LNCaP [3] was Active. In addition, the Activity in the experiment on LNCaP [4] was 4.4%; with LNCaP [1], “Dose-dependent effect”; with LNCaP [5], 66.7%; in the experiment with LNCaP [6], 17.6%. In the experiment on LNCaP [1], this molecule showed a pIC50 of 6.30. The outcome with LNCaP [7] was inactive.
As for `CC1=C(/C=C/C(C)=C/C=C/C(C)=C/C(=O)N[C@@H](CC(C)C)C(=O)O)C(C)(C)CCC1`, the result in the experiment with LNCaP [3] and in the experiment on LNCaP [7] was Active. Moreover, the Activity is 1.9% in the experiment on LNCaP [4], “Dose-dependent effect” with LNCaP [1], 65.9% in the experiment on LNCaP [5] and 19.6% in the experiment on LNCaP [6]. The same molecule had a negative-log IC50 (pIC50) with LNCaP [1] of 6.57.
In the case of `CC1=C(/C=C/C(C)=C/C=C/C(C)=C/C(=O)NCCC(=O)O)C(C)(C)CCC1`, the result in the experiment on LNCaP [3], with LNCaP [7] and in the experiment with LNCaP [2] was Active. In addition, the Activity was 2.2% in the experiment with LNCaP [4], “Dose-dependent effect” in the experiment with LNCaP [1], 64% in the experiment on LNCaP [5] and 14.8% with LNCaP [6]. This molecule had a pIC50 in the experiment on LNCaP [1] of 6.57.
